Measured values as given in ChEMBL document CHEMBL1133847, “Fipronil-based photoaffinity probe for Drosophila and human beta 3 GABA receptors” (Bioorg Med Chem Lett, 2001).

Molecular target: T1, Gamma-aminobutyric acid receptor subunit beta-3 (Homo sapiens, UniProt P28472)
T1 sequence (P28472 whole entry): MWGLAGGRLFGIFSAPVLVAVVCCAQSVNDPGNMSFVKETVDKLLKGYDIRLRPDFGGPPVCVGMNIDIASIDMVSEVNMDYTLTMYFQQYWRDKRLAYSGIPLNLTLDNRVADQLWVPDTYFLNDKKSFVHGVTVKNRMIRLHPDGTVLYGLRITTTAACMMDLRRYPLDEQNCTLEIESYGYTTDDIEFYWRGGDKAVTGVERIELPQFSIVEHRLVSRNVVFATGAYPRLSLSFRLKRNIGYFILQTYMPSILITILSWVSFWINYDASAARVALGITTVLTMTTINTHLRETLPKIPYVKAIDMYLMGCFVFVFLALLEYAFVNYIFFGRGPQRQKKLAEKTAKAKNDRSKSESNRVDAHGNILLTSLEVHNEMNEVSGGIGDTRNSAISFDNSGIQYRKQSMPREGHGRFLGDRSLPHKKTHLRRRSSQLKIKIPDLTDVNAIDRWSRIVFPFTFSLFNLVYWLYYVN
Experiment: Inhibition of [3H]EBOB binding to human GABA-A receptor beta3 subunit (range 1-28)

Row | SMILES | IC50
1 | FC(F)(F)c1cc(Cl)c(-n2cc(C3(C(F)(F)F)N=N3)cn2)c(Cl)c1 | 28 nM
2 | N#Cc1nn(-c2c(Cl)cc(C(F)(F)F)cc2Cl)c(N)c1[S+]([O-])C(F)(F)F (configuration not stated) [FIPRONIL] | 28 nM
